Assay results: article PMC4551907, “Identification of human telomerase assembly inhibitors enabled by a novel method to produce hTERT” (Nucleic Acids Research, 2015)

Legend:
hTERT [1] = target: T1, hTERT (Homo sapiens, UniProt O14746); experiment: RT-TRAP and direct telomerase assay with reconstituted purified hTERT + hTR; preincubation with hTERT vs hTR; dilution (reversibility) test; format: biochemical; set-up: gene TERT; MBP-hTERT, purified from P. pastoris
hTERT [2] = target: T1, hTERT; experiment: RT-TRAP with recombinant telomerase ([…]); format: biochemical; set-up: gene TERT

T1 sequence (O14746 whole entry): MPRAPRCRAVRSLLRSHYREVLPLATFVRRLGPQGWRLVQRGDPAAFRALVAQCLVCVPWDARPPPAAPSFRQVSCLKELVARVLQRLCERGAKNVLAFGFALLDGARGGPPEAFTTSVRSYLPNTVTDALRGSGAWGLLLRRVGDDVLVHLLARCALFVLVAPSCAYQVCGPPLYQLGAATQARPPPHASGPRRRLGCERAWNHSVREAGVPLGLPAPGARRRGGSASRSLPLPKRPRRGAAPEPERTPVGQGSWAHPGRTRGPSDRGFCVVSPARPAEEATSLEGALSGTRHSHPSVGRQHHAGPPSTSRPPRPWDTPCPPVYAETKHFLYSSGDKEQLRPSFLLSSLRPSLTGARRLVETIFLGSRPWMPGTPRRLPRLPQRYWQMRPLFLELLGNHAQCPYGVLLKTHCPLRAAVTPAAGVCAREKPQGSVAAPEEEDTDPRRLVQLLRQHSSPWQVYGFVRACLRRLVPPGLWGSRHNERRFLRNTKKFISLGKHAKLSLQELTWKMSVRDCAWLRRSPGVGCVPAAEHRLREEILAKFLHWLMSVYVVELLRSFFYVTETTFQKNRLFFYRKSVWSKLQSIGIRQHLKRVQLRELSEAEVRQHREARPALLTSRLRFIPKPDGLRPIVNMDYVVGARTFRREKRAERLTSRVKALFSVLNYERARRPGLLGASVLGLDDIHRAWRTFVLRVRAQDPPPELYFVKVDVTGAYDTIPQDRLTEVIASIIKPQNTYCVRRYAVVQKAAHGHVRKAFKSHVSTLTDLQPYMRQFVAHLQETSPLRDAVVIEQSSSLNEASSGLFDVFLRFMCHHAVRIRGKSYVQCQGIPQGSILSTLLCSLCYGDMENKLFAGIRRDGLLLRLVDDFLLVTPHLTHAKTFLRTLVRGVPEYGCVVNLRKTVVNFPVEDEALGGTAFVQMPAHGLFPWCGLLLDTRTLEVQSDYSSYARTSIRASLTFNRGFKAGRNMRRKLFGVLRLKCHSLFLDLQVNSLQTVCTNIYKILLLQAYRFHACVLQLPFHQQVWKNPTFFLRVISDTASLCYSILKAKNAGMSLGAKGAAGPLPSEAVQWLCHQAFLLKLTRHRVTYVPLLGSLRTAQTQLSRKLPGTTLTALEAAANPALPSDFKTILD

IC50 (hTERT [1]) [nM]	IC50 (hTERT [2]) [nM]	Compound
500 ± 200		NC1CC(N)C(O[C@H]2O[C@H](CNC(=O)[C@@H](N)CCCCNCc3ccc4nc5ccc6nc7ccccc7cc6c5cc4c3)[C@@H](O)C[C@H]2N)C(O)C1O[C@H]1O[C@H](CO)[C@@H](O)[C@H](N)[C@H]1O (some centres unmarked) [TAI1]
	~80	C/C(=C\C(=O)Nc1ccccc1C(=O)O)c1ccc2ccccc2c1 [BIBR1532]
